In US9321764B2, “Dihydro-pyrrolopyridinone inhibitors” (AbbVie Inc., priority 2013, dated 2016) one finds Ki data, which are given here for 20 molecules.

One assay addresses T1, BRD4 (BDI_K57-E168) (Homo sapiens, UniProt O60885).
T1 construct: BD1: amino acids K57-E168; made in house
Nature of the assay: TR-FRET bromodomain binding assay, first bromodomain of BRD4. To be noted: His-tagged BD1, 100 nM Alexa647 probe; TR-FRET protocol A-E given per row. The method, then: (§1) A time-resolved fluorescence resonance energy transfer (TR-FRET) assay was used to determine the affinities of compounds of the Examples listed in Table 1 for each bromodomain of BRD4. His-tagged first (BD1: amino acids K57-E168) and second (BD2: amino acids E352-E168) bromodomains of BRD4 were expressed and purified. An Alexa647-labeled BET-inhibitor was used as the fluorescent probe in the assay.
(§2) Compound dilution series were prepared in DMSO via an approximately 3-fold serial dilution from one of the following:
Assay method A: 250 μM-4.2 nM
Assay method B: 0.47 mM to 7.8 nM
Assay method C: 500 μM-8.5 nM
(§3) Assay method D: 2.5 mM-800 nM
Assay method E: 0.047 mM to 0.78 nM or 5-fold serial dilution from Assay method D
For Assay methods A, C, and D: Compounds were then diluted 6:100 in assay buffer (20 mM Sodium Phosphate, pH 6.0, 50 mM NaCl, 1 mM Ethylenediaminetetraacetic acid, 0.01% Triton X-100, 1 mM DL-Dithiothreitol) to yield 3× working solutions. Six microliters (μL) of the working solution was then transferred to white, low-volume assay plates (Costar #3673). A 1.5× assay mixture containing His-tagged bromodomain, Europium-conjugated anti-His antibody (Invitrogen PV5596) and the Alexa-647-conjugated probe molecule was also prepared. Twelve μL of this solution were added to the assay plate to reach a final volume of 18 μL.
For Assay methods B and E: Compound dilutions were added directly into white, low-volume assay plates (Perkin Elmer Proxiplate 384 Plus #6008280) using a Labcyte Echo in conjunction with Labcyte Access and Thermo Multidrop CombinL robotics. Compounds were then suspended in eight microliters (μL) of assay buffer (20 mM Sodium Phosphate, pH 6.0, 50 mM NaCl, 1 mM Ethylenediaminetetraacetic acid disodium salt dihydrate, 0.01% Triton X-100, 1 mM DL-Dithiothreitol) containing His-tagged bromodomain, Europium-conjugated anti-His antibody (Invitrogen PV5596) and Alexa-647-conjugated probe.
The final concentration of 1× assay mixture for assay methods A, B, C, D, and E contains 2% DMSO, 8 nM His-tagged bromodomain, 1 nM Europium-conjugated anti-His-tag antibody and 100 nM or 30 nM probe (for BDI or BDII, respectively) and compound concentration in the range of: 5 μM-85 pM for method A, 9.19 μM 150 pM for method B, 10 μM-169 pM for method C, 50 μM-16 nM for method D, and 0.92 μM-15 pM for method E.
After a one-hour equilibration at room temperature, TR-FRET ratios were determined using an Envision multilabel plate reader (Ex 340, Em 495/520).
TR-FRET data were normalized to the means of 24 no-compound controls (“high”) and 8 controls containing 1 μM un-labeled probe (“low”). Percent inhibition was plotted as a function of compound concentration and the data were fit with the 4 parameter logistic equation to obtain IC50s Inhibition constants (Ki) were calculated from the IC50s, probe Kd and probe concentration. Typical Z′ values were between 0.65 and 0.75. The minimum significant ratio was determined to evaluate assay reproducibility (Eastwood et al., (2006) J Biomol Screen, 11: 253-261). The MSR was determined to be 2.03 for BDI and 1.93 for BDII, and a moving MSR (last six run MSR overtime) for both BDI and BDII was typically <3.
(TR-FRET usually uses a lanthanide donor and a delayed reading to cut background.)

The target in another assay is T2, BRD4 (BDII_E352-M457) (Homo sapiens, UniProt O60885).
T2 construct: proliferation; Protocol; made in house
Nature of the assay: TR-FRET bromodomain binding assay, second bromodomain of BRD4. To be noted: His-tagged BD2, 30 nM Alexa647 probe; TR-FRET protocol A-E given per row. As to the method: as §1, §2, §3
For Assay methods A, C, and D: Compounds were then diluted 6:100 in assay buffer (20 mM Sodium Phosphate, pH 6.0, 50 mM NaCl, 1 mM Ethylenediaminetetraacetic acid, 0.01% Triton X-100, 1 mM DL-Dithiothreitol) to yield 3× working solutions. […] Twelve μL of this solution were added to the assay plate to reach a final volume of 18 μL.
TR-FRET data were normalized to the means of 24 no-compound controls (“high”) and 8 controls containing 1 μM un-labeled probe (“low”). Percent inhibition was plotted as a function of compound concentration and the data were fit with the 4 parameter logistic equation to obtain IC50s Inhibition constants (Ki) were calculated from the IC50s, probe Kd and probe concentration. Typical Z′ values were between 0.65 and 0.75.

For the molecule `Cn1cc(-c2cc(NC(=O)Cn3cc(-c4ccccc4F)cn3)ccc2Oc2ccc(F)cc2F)c2cc[nH]c(=O)c21` [Example 165, N-[4-(2,4-difluorophenoxy)-3-(1-methyl-7-oxo-6,7-dihydro-1H-pyrrolo[2,3-c]pyridin-3-yl)phenyl]-2-[4-(2-fluorophenyl)-1H-pyrazol-1-yl]acetamide], the Ki on BRD4 (BDI_K57-E168) stood at 214 nM; on BRD4 (BDII_E352-M457), 105 nM.

For `CCS(=O)(=O)c1ccc(Oc2ccc(OC)cc2Cl)c(-c2cn(C)c3c(=O)[nH]ccc23)c1` [Example 85, 3-[2-(2-chloro-4-methoxyphenoxy)-5-(ethylsulfonyl)phenyl]-1-methyl-1,6-dihydro-7H-pyrrolo[2,3-c]pyridin-7-one], the values for the Ki on BRD4 (BDI_K57-E168) and at BRD4 (BDII_E352-M457) were 44 nM and 17 nM, respectively.

In the case of `Cn1cc(-c2cc(S(C)(=O)=O)ccc2OCCc2ccccc2)c2cc[nH]c(=O)c21` [Example 37, 1-methyl-3-[5-(methylsulfonyl)-2-(2-phenylethoxy)phenyl]-1,6-dihydro-7H-pyrrolo[2,3-c]pyridin-7-one], the Ki on BRD4 (BDI_K57-E168) stood at 52 nM; at BRD4 (BDII_E352-M457), 99 nM.

For the molecule `CCS(=O)(=O)Nc1ccc(Oc2ccc(F)cc2)c(-c2cn(C)c3c(=O)[nH]ccc23)c1` [Example 15, N-[4-(4-fluorophenoxy)-3-(1-methyl-7-oxo-6,7-dihydro-1H-pyrrolo[2,3-c]pyridin-3-yl)phenyl]ethanesulfonamide], the inhibitory constant (Ki) at BRD4 (BDI_K57-E168) amounted to 3.3 nM; on BRD4 (BDII_E352-M457) it was 12 nM.

With `Cn1cc(-c2cc(NC(=O)C3CCN(c4ccccc4)C3=O)ccc2Oc2ccc(F)cc2F)c2cc[nH]c(=O)c21` (stereo not shown) [Example 157, N-[4-(2,4-difluorophenoxy)-3-(1-methyl-7-oxo-6,7-dihydro-1H-pyrrolo[2,3-c]pyridin-3-yl)phenyl]-2-oxo-1-phenylpyrrolidine-3-carboxamide], the inhibition constant (Ki) on BRD4 (BDI_K57-E168) worked out at 118 nM; on BRD4 (BDII_E352-M457), 333 nM.

In the case of `Cn1cc(-c2cc(S(C)(=O)=O)ccc2NCC(F)(F)F)c2cc[nH]c(=O)c21` [Example 69, 1-methyl-3-{5-(methylsulfonyl)-2-[(2,2,2-trifluoroethyl)amino]phenyl}-1,6-dihydro-7H-pyrrolo[2,3-c]pyridin-7-one], the inhibitory constant (Ki) turned out to be 773 nM on BRD4 (BDI_K57-E168) and 2290 nM on BRD4 (BDII_E352-M457).

For the molecule `Cn1cc(-c2cc(NS(C)(=O)=O)c(Oc3ccc(F)cc3F)cc2F)c2cc[nH]c(=O)c21` [Example 12, N-[2-(2,4-difluorophenoxy)-4-fluoro-5-(1-methyl-7-oxo-6,7-dihydro-1H-pyrrolo[2,3-c]pyridin-3-yl)phenyl]methanesulfonamide], the Ki amounted to 684 nM at BRD4 (BDI_K57-E168) and 1170 nM at BRD4 (BDII_E352-M457).

On to `Cn1cc(-c2cc(NCc3ccnc4ccccc34)ccc2Oc2ccc(F)cc2F)c2cc[nH]c(=O)c21` [Example 179, 3-{2-(2,4-difluorophenoxy)-5-[(quinolin-4-ylmethyl)amino]phenyl}-1-methyl-1,6-dihydro-7H-pyrrolo[2,3-c]pyridin-7-one], for which the Ki came out at 69.9 nM at BRD4 (BDI_K57-E168) and 231 nM at BRD4 (BDII_E352-M457).

Consider `Cn1cc(-c2cc(NC(=O)Cc3cc(Cl)ccc3F)ccc2Oc2ccc(F)cc2F)c2cc[nH]c(=O)c21` [Example 159, 2-(5-chloro-2-fluorophenyl)-N-[4-(2,4-difluorophenoxy)-3-(1-methyl-7-oxo-6,7-dihydro-1H-pyrrolo[2,3-c]pyridin-3-yl)phenyl]acetamide], for which the Ki came to 62.4 nM on BRD4 (BDI_K57-E168) and 59.6 nM on BRD4 (BDII_E352-M457).

Take `Cn1cc(-c2cc(S(C)(=O)=O)ccc2Oc2ccccc2)c2cc[nH]c(=O)c21` [Example 18, 1-methyl-3-[5-(methylsulfonyl)-2-phenoxyphenyl]-1,6-dihydro-7H-pyrrolo[2,3-c]pyridin-7-one]: the figures for the Ki on BRD4 (BDI_K57-E168) and at BRD4 (BDII_E352-M457) were 12 nM and 21 nM, respectively.

In the case of `CCS(=O)(=O)Nc1ccc(Oc2ccc(F)cc2F)c(-c2cn(C)c3c(=O)[nH]c(C(=O)N4CCOCC4)cc23)c1` [Example 191, N-{4-(2,4-difluorophenoxy)-3-[1-methyl-5-(morpholin-4-ylcarbonyl)-7-oxo-6,7-dihydro-1H-pyrrolo[2,3-c]pyridin-3-yl]phenyl}ethanesulfonamide], the results for the Ki on BRD4 (BDI_K57-E168) and on BRD4 (BDII_E352-M457) were 7.63 nM and 54.6 nM, respectively.

In the case of `Cn1cc(-c2cc(S(C)(=O)=O)ccc2Oc2ccc(C(C)(C)C)cc2)c2cc[nH]c(=O)c21` [Example 62, 3-[2-(4-tert-butylphenoxy)-5-(methylsulfonyl)phenyl]-1-methyl-1,6-dihydro-7H-pyrrolo[2,3-c]pyridin-7-one], the Ki at BRD4 (BDI_K57-E168) turned out to be 357 nM; at BRD4 (BDII_E352-M457), 291 nM.

With `Cn1cc(-c2cc(F)cnc2Nc2ccc(F)cc2)c2cc[nH]c(=O)c21` [Example 145, 3-{5-fluoro-2-[(4-fluorophenyl)amino]pyridin-3-yl}-1-methyl-1,6-dihydro-7H-pyrrolo[2,3-c]pyridin-7-one], the inhibitory constant (Ki) was 174 nM at BRD4 (BDI_K57-E168) and 296 nM at BRD4 (BDII_E352-M457).

Consider `Cn1cc(-c2cc(CN3CCC(C(F)(F)F)CC3)ccc2Oc2ccc(F)cc2F)c2cc[nH]c(=O)c21` [Example 129, 3-[2-(2,4-difluorophenoxy)-5-{[4-(trifluoromethyl)piperidin-1-yl]methyl]phenyl}-1-methyl-1,6-dihydro-7H-pyrrolo[2,3-c]pyridin-7-one], for which the figures for the Ki on BRD4 (BDI_K57-E168) and on BRD4 (BDII_E352-M457) were 1140 nM and 1190 nM, respectively.

`Cn1cc(-c2cc(S(C)(=O)=O)ccc2NCC2CCCCC2)c2cc[nH]c(=O)c21` [Example 47, 3-{2-[(cyclohexylmethyl)amino]-5-(methylsulfonyl)phenyl}-1-methyl-1,6-dihydro-7H-pyrrolo[2,3-c]pyridin-7-one]: the figures for the inhibition constant (Ki) at BRD4 (BDI_K57-E168) and on BRD4 (BDII_E352-M457) were 33 nM and 124 nM, respectively.

`CCS(=O)(=O)Nc1ccc(Oc2ccc(F)cc2F)c(-c2cn(C)c3c(=O)[nH]ccc23)c1` [Example 4, N-[4-(2,4-difluorophenoxy)-3-(1-methyl-7-oxo-6,7-dihydro-1H-pyrrolo[2,3-c]pyridin-3-yl)phenyl]ethanesulfonamide]: the Ki was 5.9 nM at BRD4 (BDI_K57-E168) and 7.2 nM at BRD4 (BDII_E352-M457).

In the case of `Cn1cc(-c2cc(S(C)(=O)=O)ccc2OCCCC2CCCC2)c2cc[nH]c(=O)c21` [Example 66, 3-[2-(3-cyclopentylpropoxy)-5-(methylsulfonyl)phenyl]-1-methyl-1,6-dihydro-7H-pyrrolo[2,3-c]pyridin-7-one], the Ki worked out at 219 nM on BRD4 (BDI_K57-E168) and 741 nM on BRD4 (BDII_E352-M457).

Consider `CCc1cc(Oc2ccc(S(=O)(=O)CC)cc2-c2cn(C)c3c(=O)[nH]ccc23)ccc1Cl` [Example 79, 3-[2-(4-chloro-3-ethylphenoxy)-5-(ethylsulfonyl)phenyl]-1-methyl-1,6-dihydro-7H-pyrrolo[2,3-c]pyridin-7-one], for which the Ki at BRD4 (BDI_K57-E168) was determined as 150 nM; on BRD4 (BDII_E352-M457), 84 nM.

`Cn1cc(-c2cc(NS(C)(=O)=O)ccc2Oc2ccc(F)cc2F)c2cc[nH]c(=O)c21` [Example 2, N-[4-(2,4-difluorophenoxy)-3-(1-methyl-7-oxo-6,7-dihydro-1H-pyrrolo[2,3-c]pyridin-3-yl)phenyl]methanesulfonamide]: the Ki came to 6.2 nM on BRD4 (BDI_K57-E168) and 13 nM on BRD4 (BDII_E352-M457).

In the case of `Cc1cccc(OCC2CC2)c1-c1cn(C)c2c(=O)[nH]ccc12` [Example 50, 3-[2-(cyclopropylmethoxy)-6-methylphenyl]-1-methyl-1,6-dihydro-7H-pyrrolo[2,3-c]pyridin-7-one], the Ki was 1710 nM at BRD4 (BDI_K57-E168) and greater than 4440 nM at BRD4 (BDII_E352-M457).

The Ki is a measure of affinity in units of concentration, obtained from inhibition or displacement. A high value points to weaker binding.
